In ChEMBL document CHEMBL4602638, “Propargylglycine-based antimicrobial compounds are targets of TolC-dependent efflux systems in Escherichia coli” (Bioorg Med Chem Lett, 2020) one finds logP, MIC and inhibition data, which are given here for seven compounds.

Structures are written as SMILES. ≈ marks a conversion by molar mass, not a printed value. Calls of active or inactive are those of the source. No cut-off for these calls is given here. Some results are limits rather than exact numbers.

Data set [1] in a line: Lipophilicity, logP of compound. Type of data set: physicochemical. Conditions: octanol/water.
The target in data set [2] is T1, UDP-3-O-acyl-N-acetylglucosamine deacetylase (Escherichia coli K-12) (UniProt P0A725).
T1 sequence (whole entry): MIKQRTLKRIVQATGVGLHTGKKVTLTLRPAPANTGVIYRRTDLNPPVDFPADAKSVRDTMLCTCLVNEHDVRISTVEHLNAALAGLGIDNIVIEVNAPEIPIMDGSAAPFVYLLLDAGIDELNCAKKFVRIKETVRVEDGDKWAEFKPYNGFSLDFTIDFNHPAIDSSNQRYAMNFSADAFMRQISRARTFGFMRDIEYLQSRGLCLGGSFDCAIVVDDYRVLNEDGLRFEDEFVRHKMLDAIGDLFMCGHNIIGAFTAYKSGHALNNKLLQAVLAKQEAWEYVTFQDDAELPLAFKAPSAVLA
Nature of the data set: Inhibition of LpxC in Escherichia coli harboring deltaACRB mutant assessed as reduction in bacterial growth measured after 20 hrs by CLSI protocol based microbroth dilution method. A general note: In broth dilution the organism is exposed to a series of concentrations in liquid medium.

The target in data set [3] is T2, UDP-3-O-acyl-N-acetylglucosamine deacetylase (Pseudomonas aeruginosa (strain ATCC 15692 / PAO1 / 1C / PRS 101 / LMG12228)) (UniProt P47205).
T2 sequence (whole entry): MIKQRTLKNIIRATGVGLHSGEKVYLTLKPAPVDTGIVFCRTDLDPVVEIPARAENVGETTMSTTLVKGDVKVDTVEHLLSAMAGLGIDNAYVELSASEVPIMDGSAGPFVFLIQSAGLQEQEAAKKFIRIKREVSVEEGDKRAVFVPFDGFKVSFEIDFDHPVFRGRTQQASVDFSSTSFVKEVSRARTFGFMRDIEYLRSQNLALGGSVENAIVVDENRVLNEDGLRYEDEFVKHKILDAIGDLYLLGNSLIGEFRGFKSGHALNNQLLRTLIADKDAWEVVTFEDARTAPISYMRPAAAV
In words: Inhibition of LpxC in Pseudomonas aeruginosa assessed as delay in bacterial growth at 25 to 50 ug/ml measured after 20 hrs by CLSI protocol based microbroth dilution method.

For data set [4], the target named is T1, UDP-3-O-acyl-N-acetylglucosamine deacetylase (Escherichia coli K-12). In words: Inhibition of LpxC in Escherichia coli harboring deltaTolC mutant assessed as reduction in bacterial growth measured after 20 hrs by CLSI protocol based microbroth dilution method.
Data set [5] has the same target. In words: Inhibition of LpxC in Escherichia coli expressing deltaCdelta4LFhuA assessed as reduction in bacterial growth measured after 20 hrs by CLSI protocol based microbroth dilution method.
For data set [6] the target is unchanged. In words: Inhibition of LpxC in Escherichia coli assessed as reduction in bacterial growth measured after 20 hrs by CLSI protocol based microbroth dilution method.
For data set [7] the target is unchanged. Nature of the data set: Inhibition of LpxC in Escherichia coli assessed as reduction in bacterial growth at 160 ug/ml measured after 20 hrs by CLSI protocol based microbroth dilution method.
Data set [8] has as its target T2, UDP-3-O-acyl-N-acetylglucosamine deacetylase (Pseudomonas aeruginosa (strain ATCC 15692 / PAO1 / 1C / PRS 101 / LMG12228)). In words: Inhibition of LpxC in Pseudomonas aeruginosa assessed as reduction in bacterial growth measured after 20 hrs by CLSI protocol based microbroth dilution method.
In data set [9] the target is T1, UDP-3-O-acyl-N-acetylglucosamine deacetylase (Escherichia coli K-12). Nature of the data set: Inhibition of LpxC in Escherichia coli assessed as reduction in bacterial growth at 80 ug/ml measured after 20 hrs by CLSI protocol based microbroth dilution method.
The target is the same in data set [10]. Nature of the data set: Inhibition of LpxC in Escherichia coli expressing deltaCdelta4LFhuA and harboring deltaACRB mutant assessed as reduction in bacterial growth measured after 20 hrs by CLSI protocol based microbroth dilution method.
The target is the same in data set [11]. In words: Inhibition of LpxC in Escherichia coli expressing deltaCdelta4LFhuA and harboring deltaTolC mutant assessed as reduction in bacterial growth measured after 20 hrs by CLSI protocol based microbroth dilution method.
Data set [12] has the same target. Nature of the data set: Inhibition of LpxC in Escherichia coli expressing deltaCdelta4LFhuA assessed as reduction in bacterial growth at 80 ug/ml measured after 20 hrs by CLSI protocol based microbroth dilution method.

In data set [1], `C#CC[C@H](NC(=O)c1ccc(OCC#CC)cc1)C(=O)NO` came in with a logP of 1.29. Besides, the MIC is 80 µg/mL (≈ 266 µM) in [2]; 80 µg/mL (≈ 266 µM) in data set [4]; 100 µg/mL (≈ 333 µM) in [5]; > 160 µg/mL in data set [6]; 100 µg/mL (≈ 333 µM) in [8]. Moreover, the inhibition entry in [3] was “Active”. In data set [6], the inhibition result was “Dose-dependent effect”. Moreover, the inhibition entry in data set [7] was “inactive”.
The compound `CC#CCOc1ccc(C(=O)N[C@H](C(=O)NO)C(C)(C)N)cc1` showed a logP in [1] of 0.44.
Take `C#CC[C@H](NC(=O)c1ccccc1)C(=O)NO`: in data set [1], the lipophilicity (logP) came out at 0.61.
For `O=C(N[C@@H](Cc1cn(C[C@H]2O[C@@H](n3ccc(=O)[nH]c3=O)[C@H](O)[C@@H]2O)nn1)C(=O)NO)c1ccc(-c2ccccc2)cc1`, in [1], the logP was -0.01.
For `C#CC[C@H](NC(=O)c1ccc(-c2ccccc2)cc1)C(=O)NO`, the inhibition entry in data set [9] and in data set [12] was “inactive” each time. Also, in [1], the logP was determined as 2.28. Moreover, the inhibition result in data set [10] and in [11] was “Active” in each case. Moreover, the MIC amounted to 32 µg/mL (≈ 104 µM) in data set [2] and 16 µg/mL (≈ 51.9 µM) in [4]. Also, in [2], the inhibition entry was “Dose-dependent effect”.
`N[C@@H](Cc1cn(C[C@H]2O[C@@H](n3ccc(=O)[nH]c3=O)[C@H](O)[C@@H]2O)nn1)C(=O)NO`: the logP in [1] is -3.52.
Still for that read-out and setting: then `CC#CCOc1ccc(C(=O)N[C@@H](Cc2cn(C[C@H]3O[C@@H](n4ccc(=O)[nH]c4=O)[C@H](O)[C@@H]3O)nn2)C(=O)NO)cc1`, with -1.69.

A word on the logP: it is the decadic logarithm of the partition coefficient of the neutral form, usually between octanol and water.
